Laboratory results published in US20250197420A1, “MACROCYCLIC COMPOUNDS, COMPOSITIONS, AND METHODS OF USING THEREOF” (Sionna Therapeutics Inc., priority 2022, published 2025).

How the values were obtained:
[1] = tested on: Primary human bronchial epithelial cells from a ΔF508 homozygous CF donor (CF-HBE cells); assay: TECC24 recording of CFTR-mediated transepithelial chloride transport, AUC fold over benchmark VX-809 @10 μM; type: cell-based; conditions: 48 hours incubation, AUC of forskolin-stimulated IEQ
How it was run: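 CF-HBE cells on inserts were treated with compound for 48 h at 36.5 °C, then recorded in current-clamp with benzamil 10 μM, forskolin 10 μM, and finally CFTR inhibitor-172 20 μM in pH 7.4 Hepes saline. Equivalent Cl− current AUC between forskolin and inhibitor addition is expressed as a ratio to VX-809 AUC: A <3, B 3–6, C 6–20.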

[2] = target: T1, Purified recombinant NBD1 (Homo sapiens, UniProt P13569); assay: Aggregation analysis using differential static light scattering (DSLS): thermal stability of NBD1; type: binding; conditions: NBD1 0.2 mg/ml; Tagg of compound well minus average Tagg of DMSO control wells
T1 construct: Purified recombinant NBD1 was produced using previously described methods; made in house
T1 sequence (P13569 423-646 limits assumed): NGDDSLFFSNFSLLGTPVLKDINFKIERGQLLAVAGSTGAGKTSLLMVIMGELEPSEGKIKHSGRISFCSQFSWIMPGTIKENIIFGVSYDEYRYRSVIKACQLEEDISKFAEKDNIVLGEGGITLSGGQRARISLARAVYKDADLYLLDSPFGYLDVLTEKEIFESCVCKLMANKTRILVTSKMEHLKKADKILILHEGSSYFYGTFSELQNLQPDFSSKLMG
How it was run: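 Recombinant NBD1 at 0.2 mg/ml in Tris/NaCl/MgCl2 buffer with 2 mM ATP, 2 mM DTT, 1% glycerol, pH 7.6, was incubated with compound and heated at 1 °C/min to 70 °C while static light scattering was monitored. Tagg was taken from the curve inflection point and reported as ΔTagg relative to DMSO controls.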

| Structure (SMILES) | TECC (test agent AUC divided by VX-809 AUC) [1] | DSLS (ΔTagg) [2] |
| --- | --- | --- |
| CN1CC(C)(C)CCCC(C)(c2ccccc2)c2cnc([nH]2)-c2cc(ccc2F)Oc2c(F)c(F)c3[nH]ccc3c2CCC1=O (stereo not drawn) [Compound 71, 22,23,29-Trifluoro-6,10,10,12-tetramethyl-6-phenyl-25-oxa-3,12,20,31-tetrazapentacyclo[24.3.1.12,5.016,24.017,21]hentriaconta-1(30),2,4,16,18,21,23,26,28-nonaen-13-one] | A (a TECC value less than 3 is marked “A”) | A (an ΔTagg value less than or equal to 5 °C is marked “A”) |
| CN1Cc2c(c(F)cc3[nH]ccc23)Oc2ccc(F)c(c2)-c2ncc([nH]2)C(C)(c2cccc(CCC(=O)O)c2)CCCOCC(C)(C)C1=O (stereo not drawn) [Compound 73, 3-[3-(23,29-difluoro-6,12,12,14-tetramethyl-13-oxo-10,25-dioxa-3,14,20,31-tetrazapentacyclo[24.3.1.12,5.016,24.017,21]hentriaconta-1(30),2,4,16,18,21,23,26,28-nonaen-6-yl)phenyl]propanoic acid] | B (a value between 3 and 6 is marked “B”) | C (a value greater than 10 °C and less than or equal to 25 °C is marked “C”) |
| CN1Cc2c(c(F)cc3[nH]ccc23)Oc2ccc(F)c(c2)-c2ncc([nH]2)C(C)(c2ccccc2)CCCOCC(C)(C)C1=O (stereo not drawn) [Compound 74, 23,29-difluoro-6,12,12,14-tetramethyl-6-phenyl-10,25-dioxa-3,14,20,31-tetrazapentacyclo[24.3.1.12,5.016,24.017,21]hentriaconta-1(30),2,4,16,18,21,23,26,28-nonaen-13-one] | A (a TECC value less than 3 is marked “A”) | A (an ΔTagg value less than or equal to 5 °C is marked “A”) |
| CC1(c2cccc(CCC(=O)O)c2F)CCCCOC(=O)NCCc2c(c(F)cc3[nH]ccc23)Oc2ccc(F)c(c2)-c2ncc1[nH]2 (stereo not drawn) [Compound 80, 3-[3-(23,29-Difluoro-6-methyl-12-oxo-11,25-dioxa-3,13,20,31-tetrazapentacyclo[24.3.1.12,5.016,24.017,21]hentriaconta-1(30),2,4,16,18,21,23,26,28-nonaen-6-yl)-2-fluoro-phenyl]propanoic acid] | B (a value between 3 and 6 is marked “B”) | C (a value greater than 10 °C and less than or equal to 25 °C is marked “C”) |
| CC1(c2cccc(CCC(=O)O)c2)CNC(=O)OCCCCc2c(c(F)cc3[nH]ccc23)Oc2ccc(F)c(c2)-c2ncc1[nH]2 (stereo not drawn) [Compound 83, 3-[3-(22,28-Difluoro-6-methyl-9-oxo-10,24-dioxa-3,8,19,30-tetrazapentacyclo[23.3.1.12,5.015,23.016,20]triaconta-1(29),2,4,15,17,20,22,25,27-nonaen-6-yl)phenyl]propanoic acid] | A (a TECC value less than 3 is marked “A”) | A (an ΔTagg value less than or equal to 5 °C is marked “A”) |
| CN1CCCc2c(c(F)cc3[nH]ccc23)Oc2ccc(F)c(c2)-c2ncc([nH]2)C(C)(c2cccc(CCC(=O)O)c2)CCCOC1=O (stereo not drawn) [Compound 84, 3-[3-(23,29-Difluoro-6,12-dimethyl-11-oxo-10,25-dioxa-3,12,20,31-tetrazapentacyclo[24.3.1.12,5.016,24.017,21]hentriaconta-1(30),2,4,16(24),17(21),18,22,26,28-nonaen-6-yl)phenyl]propanoic acid] | B (a value between 3 and 6 is marked “B”) | C (a value greater than 10 °C and less than or equal to 25 °C is marked “C”) |
